Test results from patent US11046714B2, “2,2-difluorodioxolo A2A receptor antagonists” (Merck Sharp & Dohme Corp., priority 2013, dated 2021).

Molecular target: human A2A receptor (Homo sapiens (Human), UniProt P29274)
Test: competition binding assay using Scintillation Proximity technology
Conditions: membranes from CHO-K1 cells expressing the human A2a receptor; 2.0 nM tritiated compound; Cheng-Prusoff
In short: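 Membranes (1.0 μg) from CHO-K1 cells expressing human A2A were treated with adenosine deaminase, then incubated 1 h at room temperature with compound (3000–0.15 nM) and 2.0 nM tritiated SCH-type ligand on WGA SPA beads in PBS plus 10 mM MgCl2. Nonspecific binding was defined with 1 μM CGS 15943. Ki was derived from EC50 via Cheng-Prusoff.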

human A2A receptor, sequence (P29274 whole entry): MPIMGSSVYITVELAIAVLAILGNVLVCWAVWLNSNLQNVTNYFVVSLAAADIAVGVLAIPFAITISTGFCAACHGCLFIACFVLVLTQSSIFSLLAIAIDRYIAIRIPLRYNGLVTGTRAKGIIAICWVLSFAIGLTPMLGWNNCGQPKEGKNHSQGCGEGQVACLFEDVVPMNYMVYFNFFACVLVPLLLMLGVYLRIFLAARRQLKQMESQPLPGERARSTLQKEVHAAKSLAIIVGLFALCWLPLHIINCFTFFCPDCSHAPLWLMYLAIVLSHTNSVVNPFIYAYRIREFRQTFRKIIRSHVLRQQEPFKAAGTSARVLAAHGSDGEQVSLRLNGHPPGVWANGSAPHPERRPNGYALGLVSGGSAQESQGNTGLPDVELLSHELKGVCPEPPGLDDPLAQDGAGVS

Row | Compound | Ki [nM]
1 | CC1(F)CCN(CCc2nc3c4ccc5c(c4nc(N)n3n2)OC(F)(F)O5)CC1 [Example 28, 2,2-difluoro-8-[2-(4-fluoro-4-methylpiperidin-1-yl)ethyl] [1,3]dioxolo[4,5-h][1,2,4] triazolo[1,5-c]quinazolin-5-amine] | 11
2 | Nc1nc2c3c(ccc2c2nc(CCN4CCC(F)(F)CC4)nn12)OC(F)(F)O3 [Example 30, 8-[2-(4,4-difluoropiperidin-1-yl)ethyl]-2,2-difluoro[1,3] dioxolo[4,5-h][1,2,4]triazolo [1,5-c]quinazolin-5-amine] | 2.6
3 | C[C@@H]1CC(F)(F)CCN1CCc1nc2c3ccc4c(c3nc(N)n2n1)OC(F)(F)O4 [Example 31, 8-{2-[(2R)-4,4-difluoro-2-methylpiperidin-1-yl]ethyl}-2,2-difluoro[1,3]dioxolo[4,5-h][1,2,4]triazolo[1,5-c]quinazolin-5-amine] | 2.2
4 | CC1(C)CN(CCc2nc3c4ccc5c(c4nc(N)n3n2)OC(F)(F)O5)C1 [Example 33, 8-[2-(3,3-dimethylazetidin-1-yl)ethyl]-2,2-difluoro[1,3]dioxolo [4,5-h][1,2,4]triazolo[1,5-c]quinazolin-5-amine] | 29
5 | C[C@@H]1CC[C@@H](C)N1CCc1nc2c3ccc4c(c3nc(N)n2n1)OC(F)(F)O4 [Example 34, 8-{2-[(2R,5R)-2,5-dimethylpyrrolidin-1-yl]ethyl}-2,2-difluoro[1,3]dioxolo[4,5-h][1,2,4]triazolo[1,5-c]quinazolin-5-amine] | 11
6 | Nc1nc2c3c(ccc2c2nc(CCN4CC5CC5C4)nn12)OC(F)(F)O3 (centres unmarked) [Example 35, 8-[2-(3-azabicyclo[3.1.0]hex-3-yl)ethyl]-2,2-difluoro[1,3] dioxolo[4,5-h][1,2,4]triazolo [1,5-c]quinazolin-5-amine] | 3
7 | Nc1nc2c3c(ccc2c2nc(CCN4CC[C@H](c5ccccc5)C4)nn12)OC(F)(F)O3 [Example 37, 2,2-difluoro-8-{2-[(3R)-3-phenylpyrrolidin-1-yl]ethyl}[1,3]dioxolo[4,5-h][1,2,4]triazolo[1,5-c]quinazolin-5-amine] | 20
8 | CC1CCN(CCc2nc3c4ccc5c(c4nc(N)n3n2)OC(F)(F)O5)CC1 [Example 38, 2,2-difluoro-8-[2-(4-methylpiperidin-1-yl)ethyl][1,3]dioxolo[4,5-h][1,2,4]triazolo[1,5-c]quinazolin-5-amine] | 27
9 | CC1(C)CCCN(CCc2nc3c4ccc5c(c4nc(N)n3n2)OC(F)(F)O5)C1 [Example 39, 8-[2-(3,3-dimethylpiperidin-1-yl)ethyl]-2,2-difluoro[1,3] dioxolo[4,5-h][1,2,4]triazolo [1,5-c]quinazolin-5-amine] | 67
10 | CN1CCN(CCc2nc3c4ccc5c(c4nc(N)n3n2)OC(F)(F)O5)CC1=O [Example 47, 4-[2-(5-amino-2,2-difluoro[1,3]dioxolo[4,5-h][1,2,4]triazolo [1,5-c]quinazolin-8-yl)ethyl]-1-methylpiperazin-2-one] | 1.7
11 | Nc1nc2c3c(ccc2c2nc(CCN4CCN(C5CCCC5)C(=O)C4)nn12)OC(F)(F)O3 [Example 49, 4-[2-(5-amino-2,2-difluoro[1,3]dioxolo[4,5-h][1,2,4]triazolo [1,5-c]quinazolin-8-yl)ethyl]-1-cyclopentylpiperazin-2-one] | 1.6
12 | Nc1nc2c3c(ccc2c2nc(CCN4C[C@H]5CCCN[C@H]5C4)nn12)OC(F)(F)O3 [Example 51, 2,2-difluoro-8-{2-[(4aR,7aR)-octahydro-6H-pyrrolo[3,4-b]pyridin-6-yl]ethyl}[1,3]dioxolo [4,5-h][1,2,4]triazolo[1,5-c]quinazolin-5-amine] | 55
13 | Nc1nc2c3c(ccc2c2nc(CCN4CC5CNC[C@H]5C4)nn12)OC(F)(F)O3 (stereo partly drawn) [Example 52, 2,2-difluoro-8-{2-[(3aS)-hexahydropyrrolo[3,4-c]pyrrol-2(1H)-yl]ethyl}[1,3]dioxolo [4,5-h][1,2,4]triazolo[1,5-c]quinazolin-5-amine] | 40
14 | Nc1nc2c3c(ccc2c2nc(CCN4CCC5(CCNCC5)C4)nn12)OC(F)(F)O3 [Example 53, 8-[2-(2,8-diazaspiro[4.5]dec-2-yl)ethyl]-2,2-difluoro[1,3] dioxolo[4,5-h][1,2,4]triazolo [1,5-c]quinazolin-5-amine] | 39

Continued by falling Ki, values first:

Row | Ki [nM] | Compound
15 | 320 | Nc1nc2c3c(ccc2c2nc(CCN4CCC5(CCNCC5)CC4)nn12)OC(F)(F)O3 [Example 54, 8-[2-(3,9-diazaspiro[5.5]undec-3-yl)ethyl]-2,2-difluoro[1,3] dioxolo[4,5-h][1,2,4]triazolo [1,5-c]quinazolin-5-amine]
16 | 90 | Nc1nc2c3c(ccc2c2nc(CCNC4CC5(CNC5)C4)nn12)OC(F)(F)O3 [Example 57, 8-[2-(2-azaspiro[3.3]hept-6-ylamino)ethyl]-2,2-difluoro [1,3]dioxolo[4,5-h][1,2,4] triazolo[1,5-c]quinazolin-5-amine]
17 | 45 | C[C@@H]1CN(CCc2nc3c4ccc5c(c4nc(N)n3n2)OC(F)(F)O5)C[C@H](C)O1 [Example 44, 8-{2-[(2R,6S)-2,6-dimethylmorpholin-4-yl]ethyl}-2,2-difluoro[1,3]dioxolo[4,5-h][1,2,4]triazolo[1,5-c]quinazolin-5-amine]
18 | 40 | Nc1nc2c3c(ccc2c2nc(CCN4CC5COCC(C4)C5(F)F)nn12)OC(F)(F)O3 [Example 32, 8-[2-(9,9-difluoro-3-oxa-7-azabicyclo[3.3.1]non-7-yl)ethyl]-2,2-difluoro[1,3]dioxolo [4,5-h][1,2,4]triazolo[1,5-c]quinazolin-5-amine]
19 | 39 | Nc1nc2c3c(ccc2c2nc(CCN4CC[C@@H](c5ccccc5)C4)nn12)OC(F)(F)O3 [Example 36, 2,2-difluoro-8-{2-[(3S)-3-phenylpyrrolidin-1-yl]ethyl}[1,3]dioxolo[4,5-h][1,2,4]triazolo[1,5-c]quinazolin-5-amine]
20 | 27 | Nc1nc2c3c(ccc2c2nc(CCN4CCCC5(CCNCC5)C4)nn12)OC(F)(F)O3 [Example 56, 8-[2-(2,9-diazaspiro[5.5]undec-2-yl)ethyl]-2,2-difluoro[1,3] dioxolo[4,5-h][1,2,4]triazolo [1,5-c]quinazolin-5-amine]
21 | 22 | Nc1nc2c3c(ccc2c2nc(CCN4CCCC45CCNCC5)nn12)OC(F)(F)O3 [Example 55, 8-[2-(1,8-diazaspiro[4.5]dec-1-yl)ethyl]-2,2-difluoro[1,3] dioxolo[4,5-h][1,2,4]triazolo [1,5-c]quinazolin-5-amine]
22 | 13 | CO[C@@H]1CCCN(CCc2nc3c4ccc5c(c4nc(N)n3n2)OC(F)(F)O5)C1 [Example 40, 2,2-difluoro-8-{2-[(3R)-3-methoxypiperidin-1-yl]ethyl}[1,3]dioxolo[4,5-h][1,2,4]triazolo[1,5-c]quinazolin-5-amine]
23 | 11 | C[C@@H]1CN(CCc2nc3c4ccc5c(c4nc(N)n3n2)OC(F)(F)O5)CCO1 [Example 42, 2,2-difluoro-8-{2-[(2R)-2-methylmorpholin-4-yl]ethyl}[1,3]dioxolo[4,5-h][1,2,4]triazolo[1,5-c]quinazolin-5-amine]
24 | 7.8 | Nc1nc2c3c(ccc2c2nc(CCN4CCC(F)CC4)nn12)OC(F)(F)O3 [Example 27, 2,2-difluoro-8-[2-(4-fluoropiperidin-1-yl)ethyl] [1,3]dioxolo[4,5-h][1,2,4] triazolo[1,5-c]quinazolin-5-amine]
25 | 7.8 | C[C@H]1COCCN1CCc1nc2c3ccc4c(c3nc(N)n2n1)OC(F)(F)O4 [Example 43, 2,2-difluoro-8-{2-[(3S)-3-methylmorpholin-4-yl]ethyl}[1,3]dioxolo[4,5-h][1,2,4]triazolo[1,5-c]quinazolin-5-amine]
26 | 3.8 | CC1=CCN(CCc2nc3c4ccc5c(c4nc(N)n3n2)OC(F)(F)O5)CC1 [Example 41, 2,2-difluoro-8-[2-(4-methyl-3,6-dihydropyridin-1(2H)-yl)ethyl][1,3]dioxolo[4,5-h][1,2,4]triazolo[1,5-c]quinazolin-5-amine]
27 | 1.8 | C[C@@H]1CN(c2nsnc2Cl)CCN1CCc1nc2c3ccc4c(c3nc(N)n2n1)OC(F)(F)O4 [Example 46, 8-{2-[(2R)-4-(4-chloro-1,2,5-thiadiazol-3-yl)-2-methylpiperazin-1-yl]ethyl}-2,2-difluoro[1,3]dioxolo[4,5-h][1,2,4]triazolo[1,5-c]quinazolin-5-amine]
28 | 1.6 | Nc1nc2c3c(ccc2c2nc(CCN4CCCC(F)(F)C4)nn12)OC(F)(F)O3 [Example 29, 8-[2-(3,3-difluoropiperidin-1-yl)ethyl]-2,2-difluoro[1,3] dioxolo[4,5-h][1,2,4]triazolo [1,5-c]quinazolin-5-amine]
29 | 1.5 | Cc1ncc(N2CCN(CCc3nc4c5ccc6c(c5nc(N)n4n3)OC(F)(F)O6)[C@H](C)C2)s1 [Example 45, 2,2-difluoro-8-{2-[(2R)-2-methyl-4-(2-methyl-1,3-thiazol-5-yl)piperazin-1-yl]ethyl} [1,3]dioxolo[4,5-h][1,2,4] triazolo[1,5-c]quinazolin-5-amine]
30 | 1.1 | Nc1nc2c3c(ccc2c2nc(CCN4CCN(c5cccc(F)c5)C(=O)C4)nn12)OC(F)(F)O3 [Example 50, 4-[2-(5-amino-2,2-difluoro[1,3]dioxolo[4,5-h][1,2,4]triazolo [1,5-c]quinazolin-8-yl)ethyl]-1-(3-fluorophenyl)piperazin-2-one]
31 | 1 | Nc1nc2c3c(ccc2c2nc(CCNC4(C(F)(F)F)CCC4)nn12)OC(F)(F)O3 [Example 58, 2,2-difluoro-8-(2-{[1-(trifluoromethyl)cyclobutyl]-amino}ethyl)[1,3]dioxolo[4,5-h][1,2,4]triazolo[1,5-c]quinazolin-5-amine]
32 | 0.8 | Nc1nc2c3c(ccc2c2nc(CCN4CCN(CC5CC5)C(=O)C4)nn12)OC(F)(F)O3 [Example 48, 4-[2-(5-amino-2,2-difluoro[1,3]dioxolo[4,5-h][1,2,4]triazolo [1,5-c]quinazolin-8-yl)ethyl]-1-(cyclopropylmethyl)piperazin-2-one]
